Reference: US20250326744A1, “PIPERAZINE DERIVATIVE OR SALT THEREOF, AND PHARMACEUTICAL COMPOSITION” (priority 2022, published 2025)
Where a name gives a salt, the structure may show the parent alone.

How the values were obtained:
mexB (PA) strain = experiment: Combinational effect with antibacterial agent against Pseudomonas aeruginosa (Test Examples 2 and 4): mexB (PA) strain with LVFX, TC or AZT at 1/4 MIC, EC99; assay type: cell-based; conditions: mexB (PA) strain, Test Example 4; for EC99, combinational effect with AZT, mexB (PA): combined with AZT at 1/4 MIC; for EC99, combinational effect with LVFX, mexB (PA): combined with LVFX at 1/4 MIC; for EC99, combinational effect with TC, mexB (PA): combined with TC at 1/4 MIC
Summary of the method: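 P. aeruginosa mexB (PA) strain, lacking MexCD-OprJ, MexEF-OprN and MexXY and overexpressing MexAB-OprM, grown 16–20 h in CAMHB (10^4–5 CFU/well) with LVFX, TC or AZT at ¼ MIC plus test compound at 0–800 μM. Growth read as OD595; EC99 is the lowest compound concentration giving ≥99% growth inhibition.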

S-3769 strain = experiment: Combinational effect with antibacterial agent against Pseudomonas aeruginosa (Test Examples 2 and 4): S-3769 strain with AMK or GM at 1/4 MIC, EC99; assay type: cell-based; conditions: S-3769 strain, Test Example 4; for EC99, combinational effect with AMK, S-3769 strain: combined with AMK at 1/4 MIC; for EC99, combinational effect with GM, S-3769 strain: combined with GM at 1/4 MIC
Summary of the method: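 P. aeruginosa S-3769 (clinical isolate, MexY overexpressed) grown 16–20 h in CAMHB, 10^4 to 5 CFU/well, with AMK or GM at ¼ MIC plus test compound 0–800 μM. Growth read as OD595; EC99 is the lowest compound concentration giving ≥99% growth inhibition.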

SMILES	EC99, combinational effect with AZT, mexB (PA) (mexB (PA) strain)	EC99, combinational effect with LVFX, mexB (PA) (mexB (PA) strain)	EC99, combinational effect with TC, mexB (PA) (mexB (PA) strain)	EC99, combinational effect with AMK, S-3769 strain (S-3769 strain)	EC99, combinational effect with GM, S-3769 strain (S-3769 strain)
CCSc1cc(F)ccc1CN1CCN(C(=O)[C@H](N)C2CCN(CCc3cc(Cl)ccc3-c3cccc(F)c3)CC2)CC1 [Example 554, Hydrobromide of (R)-2-amino-2-(1-(2-(4-chloro-3′-fluoro-[1,1-biphenyl]-2-yl)ethyl)piperidin-4-yl)-1-(4-(2-(ethylthio)-4-fluorobenzyl)piperazin-1-yl)ethan-1-one]	S (EC99≤12.5 μM)	S (EC99≤12.5 μM)	S (EC99≤12.5 μM)	A (12.5 μM<EC99≤25 μM)	S (EC99≤12.5 μM)
CSc1ccccc1CN1CCN(C(=O)[C@H](N)C2CCN(CCc3cc(Cl)ccc3-c3ccccc3N)CC2)CC1 [Example 556, Hydrobromide of (R)-2-amino-2-(1-(2-(2′-amino-4-chloro-[1,1-biphenyl]-2-yl)ethyl)piperidin-4-yl)-1-(4-(2-(methylthio)benzyl)piperazin-1-yl)ethan-1-one]	S (EC99≤12.5 μM)	S (EC99≤12.5 μM)	S (EC99≤12.5 μM)	B (25 μM<EC99≤100 μM)	B (25 μM<EC99≤100 μM)
CCOc1cccc(F)c1CN1CCN(C(=O)[C@H](N)C2CCN(CCc3cc(Cl)ccc3-c3cccc(N)c3F)CC2)CC1 [Example 557, Hydrobromide of (R)-2-amino-2-(1-(2-(3′-amino-4-chloro-2′-fluoro-[1,1-biphenyl]-2-yl)ethyl)piperidin-4-yl)-1-(4-(2-ethoxy-6-fluorobenzyl)piperazin-1-yl)ethan-1-one]	S (EC99≤12.5 μM)	S (EC99≤12.5 μM)	S (EC99≤12.5 μM)	A (12.5 μM<EC99≤25 μM)	A (12.5 μM<EC99≤25 μM)
CCOc1cccc(F)c1CN1CCN(C(=O)[C@H](N)C2CCN(CCc3cc(Cl)ccc3-c3cc(N)cc(F)c3)CC2)CC1 [Example 558, Hydrobromide of (R)-2-amino-2-(1-(2-(3′-amino-4-chloro-5′-fluoro-[1,1-biphenyl]-2-yl)ethyl)piperidin-4-yl)-1-(4-(2-ethoxy-6-fluorobenzyl)piperazin-1-yl)ethan-1-one]	A (12.5 μM<EC99≤25 μM)	S (EC99≤12.5 μM)	A (12.5 μM<EC99≤25 μM)	S (EC99≤12.5 μM)	S (EC99≤12.5 μM)
CCOc1cccc(F)c1CN1CCN(C(=O)[C@H](N)C2CCN(CCc3cc(Cl)ccc3-c3cc(N)ccc3F)CC2)CC1 [Example 559, Hydrobromide of (R)-2-amino-2-(1-(2-(5′-amino-4-chloro-2′-fluoro-[1,1-biphenyl]-2-yl)ethyl)piperidin-4-yl)-1-(4-(2-ethoxy-6-fluorobenzyl)piperazin-1-yl)ethan-1-one]	S (EC99≤12.5 μM)	S (EC99≤12.5 μM)	S (EC99≤12.5 μM)	A (12.5 μM<EC99≤25 μM)	S (EC99≤12.5 μM)
CCOc1cccc(F)c1CN1CCN(C(=O)[C@H](N)C2CCN(CCc3cc(Cl)ccc3-c3cc(N)ccc3Cl)CC2)CC1 [Example 560, Hydrobromide of (R)-2-amino-2-(1-(2-(5′-amino-2′,4-dichloro-[1,1-biphenyl]-2-yl)ethyl)piperidin-4-yl)-1-(4-(2-ethoxy-6-fluorobenzyl)piperazin-1-yl)ethan-1-one]	S (EC99≤12.5 μM)	S (EC99≤12.5 μM)	S (EC99≤12.5 μM)	A (12.5 μM<EC99≤25 μM)	A (12.5 μM<EC99≤25 μM)
CCOc1cccc(F)c1CN1CCN(C(=O)[C@H](N)C2CCN(CCc3cc(Cl)ccc3-c3cccc(NC)c3)CC2)CC1 [Example 561, Hydrobromide of (R)-2-amino-2-(1-(2-(4-chloro-3′-(methylamino)-[1,1-biphenyl]-2-yl)ethyl)piperidin-4-yl)-1-(4-(2-ethoxy-6-fluorobenzyl)piperazin-1-yl)ethan-1-one]	S (EC99≤12.5 μM)	S (EC99≤12.5 μM)	A (12.5 μM<EC99≤25 μM)	S (EC99≤12.5 μM)	S (EC99≤12.5 μM)
CCOc1cccc(F)c1CN1CCN(C(=O)[C@H](N)C2CCN(CCc3cc(Cl)ccc3-c3cccc(N(C)C)c3)CC2)CC1 [Example 562, Hydrobromide of (R)-2-amino-2-(1-(2-(4-chloro-3′-(dimethylamino)-[1,1-biphenyl]-2-yl)ethyl)piperidin-4-yl)-1-(4-(2-ethoxy-6-fluorobenzyl)piperazin-1-yl)ethan-1-one]	A (12.5 μM<EC99≤25 μM)	B (25 μM<EC99≤100 μM)	B (25 μM<EC99≤100 μM)	S (EC99≤12.5 μM)	S (EC99≤12.5 μM)
CCOc1cccc(F)c1CN1CCN(C(=O)[C@H](N)C2CCN(CCc3cc(Cl)ccc3-c3cnc(NC)c(C)c3)CC2)CC1 [Example 563, Hydrobromide of (R)-2-amino-2-(1-(5-chloro-2-(5-methyl-6-(methylamino)pyridine-3-yl)phenethyl)piperidin-4-yl)-1-(4-(2-ethoxy-6-fluorobenzyl)piperazin-1-yl)ethan-1-one]	C (100 μM<EC99)	C (100 μM<EC99)	C (100 μM<EC99)	A (12.5 μM<EC99≤25 μM)	A (12.5 μM<EC99≤25 μM)
CSc1ccccc1CN1CCN(C(=O)[C@H](N)C2CCN(CCc3cc(Cl)ccc3-c3cc(N)cc(F)c3)CC2)CC1 [Example 564, Hydrobromide of (R)-2-amino-2-(1-(2-(3′-amino-4-chloro-5′-fluoro-[1,1-biphenyl]-2-yl)ethyl)piperidin-4-yl)-1-(4-(2-(methylthio)benzyl)piperazin-1-yl)ethan-1-one]	S (EC99≤12.5 μM)	S (EC99≤12.5 μM)	S (EC99≤12.5 μM)	B (25 μM<EC99≤100 μM)	B (25 μM<EC99≤100 μM)
CNc1cccc(-c2ccc(Cl)cc2CCN2CCC([C@@H](N)C(=O)N3CCN(Cc4ccccc4SC)CC3)CC2)c1 [Example 565, Hydrobromide of (R)-2-amino-2-(1-(2-(4-chloro-3′-(methylamino)-[1,1-biphenyl]-2-yl)ethyl)piperidin-4-yl)-1-(4-(2-(methylthio)benzyl)piperazin-1-yl)ethan-1-one]	A (12.5 μM<EC99≤25 μM)	S (EC99≤12.5 μM)	S (EC99≤12.5 μM)	B (25 μM<EC99≤100 μM)	B (25 μM<EC99≤100 μM)
CCOc1cccc(F)c1CN1CCN(C(=O)[C@H](N)C2CC[N+](C)(CCc3cc(Cl)ccc3-c3ccccc3)CC2)CC1 (stereo partly drawn) [Example 568, Hydrobromide of (R)-4-(1-amino-2-(4-(2-ethoxy-6-fluorobenzyl)piperazin-1-yl)-2-oxoethyl)-1-(2-(4-chloro-[1,1-biphenyl]-2-yl)ethyl)-1-methylpiperidin-1-ium bromide]	C (100 μM<EC99)	C (100 μM<EC99)	C (100 μM<EC99)	S (EC99≤12.5 μM)	S (EC99≤12.5 μM)
CCOc1cccc(F)c1CN1CCN(C(=O)[C@H](N)C2CCC(N(C)Cc3ccccc3)CC2)CC1 (stereo partly drawn) [Example 570, Hydrobromide of (R)-2-amino-2-(4-(benzyl(methyl)amino)cyclohexyl)-1-(4-(2-ethoxy-6-fluorobenzyl)piperazin-1-yl)ethan-1-one]	C (100 μM<EC99)	C (100 μM<EC99)	C (100 μM<EC99)	B (25 μM<EC99≤100 μM)	B (25 μM<EC99≤100 μM)
CCOc1cccc(F)c1CN1CCN(C(=O)[C@H](N)C2CCN(CCc3cc(Cl)ccc3-c3cccc(O)c3Cl)CC2)CC1 [Example 571, (R)-2-amino-2-(1-(2-(2′,4-dichloro-3′-hydroxy-[1,1′-biphenyl]-2-yl)ethyl)piperidin-4-yl)-1-(4-(2-ethoxy-6-fluorobenzyl)piperazin-1-yl)ethan-1-one]	S (EC99≤12.5 μM)	S (EC99≤12.5 μM)	S (EC99≤12.5 μM)	S (EC99≤12.5 μM)	S (EC99≤12.5 μM)
